Series [1] deals with SMN2 minigene mRNA (SMN2-A minigene) in HEK293H cells. Briefly: SMN2 minigene mRNA splicing RT-qPCR assay in cultured cells. The series is classed as cell-based, human. The conditions noted are these: Homo sapiens, HEK293-H; concentration increasing full length SMN2 mRNA 1.5-fold relative to vehicle-treated cells; HEK293H cells with SMN2-A minigene, 24 hours, 7-point concentration data; read-out: EC1.5x for production of full length SMN2 mRNA. In a few lines: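 EC1.5× values derive from a 24 h treatment of SMN2-A minigene HEK293H cells and GAPDH-normalized RT-qPCR of exon 7-included minigene mRNA relative to vehicle-treated cells.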

For series [2], the system named is Smn protein in SMA patient fibroblast cells (GM03813). Briefly: Smn protein assay in cultured cells (SMN HTRF). The conditions noted are these: SMA patient fibroblast cells, 48 hours; for maximum fold (Fold) increase of Smn protein: 7-point concentration data, fold relative to vehicle control; for EC1.5x for Smn protein expression: 7-point concentration curve, SMN HTRF, concentration producing 1.5 times Smn protein vs DMSO vehicle control. The series is classed as cell-based, human. The method, boiled down: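 Cells were cultured 72 h, seeded at 5,000/well and dosed with seven concentrations (3.16-fold apart) for 48 h. HTRF on lysates, read at 665 and 620 nm, gave blank-corrected ΔF values relative to DMSO. Potency is reported as EC1.5×, efficacy as maximal fold Smn increase.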

The structures appear in SMILES notation.

As to `CCc1cc(N2CCN3CCC[C@@H]3C2)cn2c(=O)cc(-c3ccc(OC)c(OC)c3)nc12` [Compound 455, 2-(3,4-dimethoxyphenyl)-9-ethyl-7-[(8aR)-hexahydropyrrolo[1,2-a]pyrazin-2(1H)-yl]-4H-pyrido[1,2-a]pyrimidin-4-one], the melting point lay within 180 to 184 °C. Besides, the EC (1.5-fold increase) in series [1] lay in the range of 0.1 to 0.3 µM. Moreover, the “maximum fold (Fold) increase of Smn protein” value (“maximum fold (Fold) increase” for short) in series [2] was “** (a fold increase between >1.2 and ≤1.35 is indicated by two stars (**))”.

Compound `COc1nc(C)cn2nc(-c3cc(=O)n4cc(N5CCN(C)CC5)ccc4n3)cc12` [Cpd 625, 2-(4-methoxy-6-methylpyrazolo[1,5-a]pyrazin-2-yl)-7-(4-methylpiperazin-1-yl)-4H-pyrido[1,2-a]pyrimidin-4-one] registered a melting point of 242 to 244 °C. The EC (1.5-fold increase) in series [1] fell in the range of 1 to 3 µM. Besides, the “maximum fold (Fold) increase” value in series [2] was “** (a fold increase between >1.2 and ≤1.35 is indicated by two stars (**))”.

The compound `Cc1cn2nc(-c3cc(=O)n4cc(N5CCN(CCO)[C@H](C)C5)cc(C)c4n3)cc2c(C)n1` [Compound 673, 2-(4,6-dimethylpyrazolo[1,5-a]pyrazin-2-yl)-7-[(3R)-4-(2-hydroxyethyl)-3-methylpiperazin-1-yl]-9-methyl-4H-pyrido[1,2-a]pyrimidin-4-one] yielded a melting point of 273 to 281 °C. In addition, the EC (1.5-fold increase) in series [1] is < 0.1 µM. Besides, in series [2], the “EC1.5x for Smn protein expression” value is on record as “**** (an EC1.5x≤0.3 μM is indicated by four stars (****))”; the “maximum fold (Fold) increase” value is “**** (a fold increase between >1.5 and ≤1.65 is indicated by four stars (****))”.

The compound `COc1ccc(-c2cc(=O)n3cc(N4CCC(CN5CCCCC5)CC4)ccc3n2)cc1OC` [Compound 575, 2-(3,4-dimethoxyphenyl)-7-[4-(piperidin-1-ylmethyl)piperidin-1-yl]-4H-pyrido[1,2-a]pyrimidin-4-one] gave a melting point of 184 to 186 °C. The EC (1.5-fold increase) in series [1] lay in the range of 0.3 to 1 µM. Also, in series [2], the “maximum fold (Fold) increase” value was “*** (a fold increase between >1.35 and ≤1.5 is indicated by three stars (***))”.

On to `COc1ccc(-c2cc(=O)n3cc(C4=CCNCC4)cc(C)c3n2)cc1OC` [Compound 247, 2-(3,4-dimethoxyphenyl)-9-methyl-7-(1,2,3,6-tetrahydropyridin-4-yl)-4H-pyrido[1,2-a]pyrimidin-4-one], for which the melting point lay within 186 to 191 °C. Also, the EC (1.5-fold increase) in series [1] was < 0.1 µM. In addition, in series [2], the “EC1.5x for Smn protein expression” value is reported as “**** (an EC1.5x≤0.3 μM is indicated by four stars (****))” and the “maximum fold (Fold) increase” value is recorded as “***** (a fold increase >1.65 is indicated by five stars (*****))”.

The compound `COc1ccc(-c2cc(=O)n3cc(N4CCC(NC(C)C)CC4)cc(C)c3n2)cc1OC` [Compound 416, 2-(3,4-dimethoxyphenyl)-9-methyl-7-[4-(propan-2-ylamino)piperidin-1-yl]-4H-pyrido[1,2-a]pyrimidin-4-one] returned a melting point of 178 to 183 °C. Moreover, in series [1], the EC (1.5-fold increase) was < 0.1 µM. In series [2], the “EC1.5x for Smn protein expression” value is “** (an EC1.5× between >1 μM and ≤3 μM is indicated by two stars (**))”; the “maximum fold (Fold) increase” value is “*** (a fold increase between >1.35 and ≤1.5 is indicated by three stars (***))”.

For `CCOc1cc(-c2cc(=O)n3cc(N4CCN[C@@H](C)C4)ccc3n2)ccc1OC` [Compound 113, 2-(3-ethoxy-4-methoxyphenyl)-7-[(3S)-3-methylpiperazin-1-yl]-4H-pyrido[1,2-a]pyrimidin-4-one], the melting point was in the range of 159 to 162 °C. Further, the EC (1.5-fold increase) in series [1] lay in the range of 1 to 3 µM. Also, the “maximum fold (Fold) increase” value in series [2] is “*** (a fold increase between >1.35 and ≤1.5 is indicated by three stars (***))”.

In turn, `O=c1cc(-c2cccc(OC(F)(F)F)c2)nc2ccc(N3CCNCC3)cn12` [Compound 80, 7-(piperazin-1-yl)-2-[3-(trifluoromethoxy)phenyl]-4H-pyrido[1,2-a]pyrimidin-4-one] displayed a melting point of 140 to 143 °C. The EC (1.5-fold increase) in series [1] fell in the range of 1 to 3 µM. In series [2], the “maximum fold (Fold) increase” value is “* (A maximum fold increase of ≤1.2 is indicated by one star (*))”.

Regarding `COc1ccc(-c2cc(=O)n3cc(N4CCN[C@@H](C)C4)ccc3n2)cc1OC(F)(F)F` [Compound 83, 2-[4-methoxy-3-(trifluoromethoxy)phenyl]-7-[(3S)-3-methylpiperazin-1-yl]-4H-pyrido[1,2-a]pyrimidin-4-one], the melting point was in the range of 176 to 178 °C. In addition, the EC (1.5-fold increase) in series [1] is 0.3 to 1 µM. Besides, in series [2], the “maximum fold (Fold) increase” value is on record as “* (A maximum fold increase of ≤1.2 is indicated by one star (*))”.

`COc1ccc(-c2cc(=O)n3cc(C4=C[C@H]5CC[C@@H](C4)N5)ccc3n2)cc1OC` [Compound 262, 7-[(1R,5S)-8-azabicyclo[3.2.1]oct-2-en-3-yl]-2-(3,4-dimethoxyphenyl)-4H-pyrido[1,2-a]pyrimidin-4-one]: the melting point fell in the range of 191 to 194 °C. For the same compound, in series [1], the EC (1.5-fold increase) was 0.1 to 0.3 µM. Also, in series [2], the “EC1.5x for Smn protein expression” value is “*** (an EC1.5× between >0.3 μM and ≤1 μM is indicated by three stars (***))”; the “maximum fold (Fold) increase” value was “***** (a fold increase >1.65 is indicated by five stars (*****))”.

`Cc1cn2cc(-c3cc(=O)n4cc(C5CCNCC5)ccc4n3)cc(C)c2n1` [Compound 607, 2-(2,8-dimethylimidazo[1,2-a]pyridin-6-yl)-7-(piperidin-4-yl)-4H-pyrido[1,2-a]pyrimidin-4-one] returned a melting point of 282 to 284 °C. The EC (1.5-fold increase) in series [1] was < 0.1 µM. In addition, in series [2], the “EC1.5x for Smn protein expression” value is on record as “**** (an EC1.5x≤0.3 μM is indicated by four stars (****))” and the “maximum fold (Fold) increase” value is reported as “***** (a fold increase >1.65 is indicated by five stars (*****))”.

Compound `Cc1cn2nc(-c3cc(=O)n4cc(N5CCC(N6CCCC6)CC5)ccc4n3)cc2c(C)n1` [Compound 425, 2-(4,6-dimethylpyrazolo[1,5-a]pyrazin-2-yl)-7-[4-(pyrrolidin-1-yl)piperidin-1-yl]-4H-pyrido[1,2-a]pyrimidin-4-one] yielded a melting point of 215 to 218 °C. In addition, in series [1], the EC (1.5-fold increase) is < 0.1 µM. Also, in series [2], the “EC1.5x for Smn protein expression” value is listed as “**** (an EC1.5x≤0.3 μM is indicated by four stars (****))” and the “maximum fold (Fold) increase” value is recorded as “***** (a fold increase >1.65 is indicated by five stars (*****))”.

Regarding `COc1ccc(-c2ccc3nc(C4=CCNCC4)cc(=O)n3c2)cc1OC` [Compound 371, 7-(3,4-dimethoxyphenyl)-2-(1,2,3,6-tetrahydropyridin-4-yl)-4H-pyrido[1,2-a]pyrimidin-4-one], the melting point is 172 to 178 °C. In addition, the EC (1.5-fold increase) in series [1] lay within 0.1 to 0.3 µM. In addition, in series [2], the “EC1.5x for Smn protein expression” value was “*** (an EC1.5× between >0.3 μM and ≤1 μM is indicated by three stars (***))”; the “maximum fold (Fold) increase” value was “**** (a fold increase between >1.5 and ≤1.65 is indicated by four stars (****))”.

As to `Cc1cn2cc(-c3ccc4nc(C5CCN(C(C)C)CC5)cc(=O)n4c3)ccc2n1` [Compound 461, 7-(2-methylimidazo[1,2-a]pyridin-6-yl)-2-[1-(propan-2-yl)piperidin-4-yl]-4H-pyrido[1,2-a]pyrimidin-4-one], the melting point was in the range of 215 to 218 °C. Further, the EC (1.5-fold increase) in series [1] fell in the range of 0.3 to 1 µM. Also, in series [2], the “EC1.5x for Smn protein expression” value was “** (an EC1.5× between >1 μM and ≤3 μM is indicated by two stars (**))”; the “maximum fold (Fold) increase” value is “**** (a fold increase between >1.5 and ≤1.65 is indicated by four stars (****))”.

In turn, `COc1ccc(-c2cc(=O)n3cc(N4C[C@H]5CN(CCO)C[C@H]5C4)ccc3n2)cc1F` [Compound 279, 2-(3-fluoro-4-methoxyphenyl)-7-[(3aR,6aS)-5-(2-hydroxyethyl)hexahydropyrrolo[3,4-c]pyrrol-2(1H)-yl]-4H-pyrido[1,2-a]pyrimidin-4-one] displayed a melting point of 180 to 186 °C. Moreover, the EC (1.5-fold increase) in series [1] fell in the range of 0.1 to 0.3 µM. Besides, the “maximum fold (Fold) increase” value in series [2] was “** (a fold increase between >1.2 and ≤1.35 is indicated by two stars (**))”.

In turn, `Cc1cn2ccc(-c3cc(=O)n4cc(C5CCNCC5)ccc4n3)cc2n1` [Compound 556, 2-(2-methylimidazo[1,2-a]pyridin-7-yl)-7-(piperidin-4-yl)-4H-pyrido[1,2-a]pyrimidin-4-one] yielded a melting point of 257 to 260 °C. The EC (1.5-fold increase) in series [1] lay in the range of 0.3 to 1 µM. Moreover, in series [2], the “EC1.5x for Smn protein expression” value was “** (an EC1.5× between >1 μM and ≤3 μM is indicated by two stars (**))”; the “maximum fold (Fold) increase” value was “*** (a fold increase between >1.35 and ≤1.5 is indicated by three stars (***))”.

On to `Cc1cn2nc(-c3cc(=O)n4cc(N5CCN(CCO)[C@H](C)C5)ccc4n3)cc2c(C)n1` [Compound 532, 2-(4,6-dimethylpyrazolo[1,5-a]pyrazin-2-yl)-7-[(3R)-4-(2-hydroxyethyl)-3-methylpiperazin-1-yl]-4H-pyrido[1,2-a]pyrimidin-4-one], for which the melting point is 238 to 240 °C. For the same compound, the EC (1.5-fold increase) in series [1] was < 0.1 µM. For the same compound, in series [2], the “EC1.5x for Smn protein expression” value is listed as “**** (an EC1.5x≤0.3 μM is indicated by four stars (****))” and the “maximum fold (Fold) increase” value is recorded as “***** (a fold increase >1.65 is indicated by five stars (*****))”.

Source of the values: patent publication US11753407B2, “Compounds for treating spinal muscular atrophy” (PTC Therapeutics, Inc., priority 2012, dated 2023).
